A word on the viability, T/C: it is the ratio of treated to control. In general, pIC50 refers to the negative decadic logarithm of the IC50, by convention in mol/L.

This is an account of results in PubChem BioAssay AID1919006 (Molecular Pharmacology Branch, DTP, NCI, 2023).

The structures appear in SMILES notation. pIC50: −log10 of the molar value. Several values for one entry are separate records, joined by “and”; a condition that tells them apart may be missing. Equal entries are not always repeated. Bounds are passed on as bounds.

For the assay, the system named is 885512-296-R-J2-PDC complex spheroid growth, % test/control. The assay can be described thus: Anticancer human tumor 885512-296-R-J2-PDC patient-derived breast carcinoma cell line growth inhibition [AhR]. The conditions noted are these: for viability, T/C: stronger effect = lower value; for pIC50: curve of compound. From the text: Multicellular complex tumor spheroid response to aryl hydrocarbon receptor antagonists in combination with a variety of drugs and investigational agents in selected tumor cell lines
The current study was undertaken to assess response to aryl hydrocarbon receptor antagonists in combination with standard-of-care drugs and investigational agents in solid tumor complex spheroid models. Complex spheroids include a stromal component modeled by human endothelial cells (HUVEC) and fibroblasts modeled by human mesenchymal stem cells (MSCs). The concentration ranges selected for each drug and investigational agent were based upon clinically achievable concentrations if the clinical Cmax of the agent was known.
Compounds. The drugs and investigational agents: BAY 2416964 (NSC825713), GNF351 (NSC835774), CH-223191 (NSC835775), CPI-455 (NSC825282), aza-TdCyd (NSC777586), decitabine (NSC127716), belinostat (NSC758774), entinostat (NSC756642), pevonedistat (NSC761192), tazemetostat (NSC777109), talazoparib (NSC765396), olaparib (NSC753686), selinexor (NSC780203), nedisertib (M3814, NSC802822), bortezomib (NSC756655), venetoclax (NSC766270), doxorubicin (NSC123127), elimusertib (BAY189344, NSC800525), ceralasertib (AZD6738, NSC777638), TAK-243 (NSC785004), alisertib (NSC759677), etoposide (NSC141540), topotecan (NSC609699), eribulin (NSC707389), gemcitabine (NSC613327), carboplatin (NSC241240), cisplatin (NSC119875), and SN-38 (NSC673596) were obtained from the National Cancer Institute (NCI) Developmental Therapeutics Program Chemical Repository (32). The FDA-approved anticancer drug set is available from the Developmental Therapeutics Program at https://dtp.cancer.gov/organization/dscb/obtaining/available plates.htm. […] The stock solutions were prepared in dimethyl sulfoxide (DMSO, Sigma-Aldrich, St. Louis, MO, cat. D2650), except for the platinum compounds which were prepared in saline (Quality Biological, Gaithersburg, MD, cat. 114-055-101), at 800-fold the tested concentration and stored at -70 degrees C prior to their use. All drugs and investigational agents were tested over a range starting from a high concentration at or near the clinical Cmax and decreasing in half-log increments. If the clinical Cmax for an agent had not been determined, the highest concentration tested was 10 microM (Table 1).
Cell Culture. All cells were maintained in an incubator at 37 degrees C and 5% CO2 with 95% humidity. The PDC lines were cultured according to standard operating procedures established by the NCI PDMR (https://pdmr.cancer.gov). Briefly, all PDCs were thawed and cultured in Matrigel-coated flasks prepared with a working solution of 1X Ham's F-12 nutrient mix, without supplementation (Invitrogen, Waltham, MA, cat. 11765054), 100 U/mL penicillin-streptomycin (Invitrogen, cat. 15140122), and 2.5% Matrigel (Corning Inc., Corning, NY, cat. 354248) for the first three passages. All PDCs were cultured in complete DMEM/F-12 media containing advanced DMEM/F-12 (Invitrogen, cat. 12634028), 4.9% defined fetal bovine serum, heat inactivated (HyClone Laboratories Inc., Logan, UT, cat. SH30070.03HI), 389 ng/mL hydrocortisone (Sigma-Aldrich, cat. H4001), 9.7 ng/mL human EGF recombinant protein (Invitrogen, cat. PHG0313), 23.4 microg/mL adenine (Sigma-Aldrich, cat. A2786), 97.3 U/mL penicillin-streptomycin (Invitrogen, cat. 15140122), 1.9 mM L-glutamine (Invitrogen, cat. 25030081), and 9.7 microM Y-27632 dihydrochloride (Tocris Bioscience, Bristol, United Kingdom, cat. 1254). The PDCs were cultured in complete DMEM/F12 media without 10 microM Y-27632 dihydrochloride for at least two passages prior to the screen. The established cell lines NCI-H1341 and […] were cultured in DMEM/F-12, HEPES (Invitrogen, cat. 11330032), 5% defined fetal bovine serum (HyClone Laboratories Inc., cat. SH30070.03), ITS premix universal culture supplement [insulin (5 microg/mL), transferrin (5 microg/mL), and selenious acid (5 ng/mL)] […]
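Note: spheroids exposed to compounds for seven days.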

Regarding `CC(C)CC(NC(=O)C(Cc1ccccc1)NC(=O)c1cnccn1)B(O)O` (configuration not stated), the negative logarithm of the IC50 (pIC50) is 8.23 and 8.20 and 8.30. Further, the viability, T/C (compound 0.000949 µM) is 106% and 93.4% and 96.8%. Besides, the viability, T/C (compound 0.003 µM) is 94.4% and 94.7% and 83.5%. For the same compound, for the setting “compound 0.00949 µM”, the viability, T/C is 19.2% and 26.2% and 9.11%. Further, under “compound 0.03 µM”, the viability, T/C is 1.45% and 1.42% and 0.86%. Moreover, the viability, T/C (compound 0.0949 µM) was 0.43% and 0.3% and 0.26%. Under “compound 0.3 µM”, the viability, T/C is 0.27% and 0.21% and 0.15%.

Turning to `CC1(C)CCC(CN2CCN(c3ccc(C(=O)NS(=O)(=O)c4ccc(NCC5CCOCC5)c([N+](=O)[O-])c4)c(Oc4cnc5[nH]ccc5c4)c3)CC2)=C(c2ccc(Cl)cc2)C1`, the pIC50 was 5.34 and 5.37 and 5.14. Moreover, under “compound 0.0316 µM”, the viability, T/C was 110% and 95.6% and 109%. Moreover, where the note is “compound 0.1 µM”, the viability, T/C is 109% and 91.1% and 99.6%. For the same compound, the viability, T/C (compound 0.316 µM) is 91.2% and 87.2% and 101%. For the same compound, the viability, T/C (compound 1 µM) was 94.4% and 79.7% and 98%. In addition, under “compound 3.16 µM”, the viability, T/C was 59.5% and 62.4% and 71.5%. Also, the viability, T/C (compound 10 µM) was 24.6% and 16.2% and 41.4%.

As for `CC1COCCN1c1cc(-c2ccnn2C)c2ccnc(-c3ccn[nH]3)c2n1` (configuration not stated), the pIC50 was 7.47 and 7.44 and 7.34. For the same compound, the viability, T/C (compound 0.00316 µM) is 82.9% and 88.1% and 101%. Moreover, the viability, T/C (compound 0.01 µM) was 87.9% and 89.4% and 87.5%. For the setting “compound 0.0316 µM”, the viability, T/C is 51.9% and 54.7% and 68%. Under “compound 0.1 µM”, the viability, T/C is 10.5% and 10.1% and 13%. Moreover, under “compound 0.316 µM”, the viability, T/C is 3.44% and 3.12% and 2.94%. Further, the viability, T/C (compound 1 µM) was 2.43% and 2.64% and 1.91%.

`CCN(c1cc(-c2ccc(CN3CCOCC3)cc2)cc(C(=O)NCc2c(C)cc(C)[nH]c2=O)c1C)C1CCOCC1`: the pIC50 was less than 5.52. For the same compound, the viability, T/C (compound 0.00949 µM) was 99.4% and 113% and 105%. Moreover, the viability, T/C (compound 0.03 µM) is 116% and 94.8% and 94.7%. Further, where the note is “compound 0.0949 µM”, the viability, T/C is 93% and 86.7% and 98.8%. Also, the viability, T/C (compound 0.3 µM) is 89.7% and 91.3% and 78.9%. Besides, under “compound 0.949 µM”, the viability, T/C was 86.7% and 77.8% and 76.2%. In addition, the viability, T/C (compound 3 µM) was 72.8% and 67.7% and 80.9%.

On to `CC[C@@]1(O)C(=O)OCc2c1cc1n(c2=O)Cc2cc3c(CN(C)C)c(O)ccc3nc2-1`, for which the pIC50 is 8.27 and 8.29 and 7.93. For the same compound, under “compound 0.000316 µM”, the viability, T/C was 105% and 92.5% and 101%. In addition, the viability, T/C (compound 0.001 µM) is 101% and 96.7% and 108%. The viability, T/C (compound 0.00316 µM) was 65.5% and 69.2% and 88%. In addition, the viability, T/C (compound 0.01 µM) was 31.4% and 22.4% and 59.5%. For the same compound, where the note is “compound 0.0316 µM”, the viability, T/C is 6.59% and 7.5% and 7.58%. Moreover, under “compound 0.1 µM”, the viability, T/C is 6.75% and 6.73% and 5.44%.

As to `CCc1c2c(nc3ccc(O)cc13)-c1cc3c(c(=O)n1C2)COC(=O)[C@]3(O)CC`, the pIC50 is greater than 9.02. The viability, T/C (compound 0.000949 µM) was 17.5% and 17.7% and 9.88%. Moreover, the viability, T/C (compound 0.003 µM) is 9.21% and 7.45% and 8.07%. In addition, for the setting “compound 0.00949 µM”, the viability, T/C was 6.22% and 5.99% and 5.4%. Moreover, the viability, T/C (compound 0.03 µM) is 4.21% and 4.52% and 3.14%. In addition, for the setting “compound 0.0949 µM”, the viability, T/C is 2.53% and 2.06% and 1.76%. The viability, T/C (compound 0.3 µM) is 1.46% and 1.11% and 1.27%.

`COc1cc(C2c3cc4c(cc3C(OC3OC5COC(C)OC5C(O)C3O)C3COC(=O)C23)OCO4)cc(OC)c1O` (configuration not stated): the negative logarithm of the IC50 (pIC50) is 6.21 and 6.11 and 6.40. Further, the viability, T/C (compound 0.0316 µM) was 107% and 84.7% and 91.2%. For the same compound, the viability, T/C (compound 0.1 µM) was 96% and 92.5% and 87.4%. Moreover, under “compound 0.316 µM”, the viability, T/C is 78.1% and 72.5% and 59.1%. Under “compound 1 µM”, the viability, T/C was 29.6% and 44.8% and 14.3%. For the same compound, where the note is “compound 3.16 µM”, the viability, T/C is 10.7% and 9.52% and 9.14%. Further, the viability, T/C (compound 10 µM) was 8.19% and 5.47% and 7.82%.

For `COc1cc(Nc2ncc3c(n2)-c2ccc(Cl)cc2C(c2c(F)cccc2OC)=NC3)ccc1C(=O)O`, the viability, T/C was 53.5% and 54% and 51.9% (compound 0.0316 µM); 43.2% and 52% and 43.9% (compound 0.1 µM); 48.8% and 56.9% and 53% (compound 0.316 µM); 42.7% and 45% and 41.8% (compound 1 µM); 38.3% and 53.3% and 41.6% (compound 3.16 µM); 37% (2×) and 39.3% (compound 10 µM).

With `COc1cccc2c1C(=O)c1c(O)c3c(c(O)c1C2=O)CC(O)(C(=O)CO)CC3OC1CC(N)C(O)C(C)O1` (configuration not stated), the negative logarithm of the IC50 (pIC50) is greater than 7.50. Further, the viability, T/C (compound 0.0316 µM) was 22.1% and 16.4% and 24.6%. For the setting “compound 0.1 µM”, the viability, T/C was 20.5% and 11.7% and 14.2%. Besides, the viability, T/C (compound 0.316 µM) is 8.97% and 3.94% and 5.3%. The viability, T/C (compound 1 µM) was 0.67% and 0.49% and 0.27%. Besides, the viability, T/C (compound 3.16 µM) is 1.99% and 1.41% and 0.92%. The viability, T/C (compound 10 µM) was 1.58% and 1.1% and 0.8%.
